Measured values taken from publication PMC11998009, “Identification of a New FtsZ Inhibitor by Virtual Screening, Mechanistic Insights, and Structure–Activity Relationship Analyses” (ACS Infectious Diseases, 2025).
Converted amounts (≈) assume the structure as drawn. Read-outs that look alike come from different tables or passages of the source.

Legend:
S. aureus ATCC25923 [1] = experiment: MIC determination by 2-fold microdilution, resazurin method; type: cell-based, Staphylococcus aureus; settings: S. aureus ATCC25923, single drug; for MIC: Staphylococcus aureus
[2] = molecular target: T1, S. aureus FtsZ protein (FtsZSa) (Staphylococcus aureus, UniProt P0A031); experiment: In vitro FtsZ GTPase activity (PK/LDH coupled assay); type: biochemical; set-up: Residual GTPase activity: concentration or dose not given beside the values; settings: S. aureus FtsZ protein
T1 construct: made in house; host or cells: Escherichia coli BL21DE3
T1 sequence (P0A031 1-390): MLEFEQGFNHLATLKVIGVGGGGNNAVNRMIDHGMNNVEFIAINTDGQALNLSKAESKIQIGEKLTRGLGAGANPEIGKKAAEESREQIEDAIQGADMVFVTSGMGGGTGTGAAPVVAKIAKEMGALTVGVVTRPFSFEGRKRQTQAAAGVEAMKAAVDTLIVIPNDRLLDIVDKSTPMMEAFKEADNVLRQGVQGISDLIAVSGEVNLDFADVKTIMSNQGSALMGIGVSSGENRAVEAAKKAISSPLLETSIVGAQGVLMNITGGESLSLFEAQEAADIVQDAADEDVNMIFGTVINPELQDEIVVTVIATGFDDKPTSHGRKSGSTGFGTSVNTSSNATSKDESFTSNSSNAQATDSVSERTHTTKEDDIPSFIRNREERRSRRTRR
Procedure: In vitro FtsZ GTPase activity
FtsZSa and FtsZPa were expressed and purified as previously described.13,14 GTPase activity was assayed at 30°C using a pyruvate kinase–L-lactic dehydrogenase (PK/LDH) spectrophotometric coupled assay, as previously described15 with minor modification. The reaction mixture was first set up to contain 50 mM MES […]
phosphoenolpyruvate, and 4.8 μM of FtsZ. The assay was initiated by the addition of 1 mM GTP. The experiments were performed in triplicate. The inhibitory concentration that reduced the enzymatic activity by half (IC50) was determined using Prism 10. […]

FtsZSa [3] = molecular target: T2, FtsZSa (Staphylococcus aureus, UniProt P0A031); experiment: FtsZSa polymerization, sedimentation assay; settings: sedimentation assay of C11 derivatives
T2 sequence (P0A031 1-390): T1 sequence (P0A031 1-390)

FtsZSa [4] = molecular target: T2, FtsZSa; experiment: FtsZSa polymerization, 90° light scattering
S. aureus ATCC25923 [5] = experiment: Checkerboard assay of C11 with antibiotics; type: cell-based; settings: antibiotic combined with C11
[6] = test system: S. aureus cystic fibrosis clinical isolates; experiment: MIC for CF clinical isolates; type: cell-based
mammalian tubulin = experiment: Tubulin polymerization assay, fluorescence based; type: biochemical; settings: 10 μM; DMSO control 3.78
S. aureus = settings: cited from earlier work
[7] = test system: Mycobacterium tuberculosis; set-up: method as in PMID 21126020; settings: cited from earlier work

Compound: COC(=O)c1ccc(CSc2ccc(-c3ccc4c(c3)OCO4)nn2)o1 [C1]
- MIC S. aureus (S. aureus ATCC25923 [1]): ≥ 256 µg/mL
- Residual GTPase activity [2]: 78.5%

Compound: CC(O)c1ccc(C2(CNC(=O)c3ccc(C(F)(F)F)nc3)CCCC2)s1 (centres unmarked) [C2]
- MIC S. aureus (S. aureus ATCC25923 [1]): ≥ 256 µg/mL
- Residual GTPase activity [2]: 35.5%

Compound: COc1ccccc1-c1cc(C(=O)NCC(N)=O)[nH]n1 [C5]
- MIC S. aureus (S. aureus ATCC25923 [1]): ≥ 256 µg/mL
- Residual GTPase activity [2]: 95.3%

Compound: NC(=O)c1cc(OC2CN(C(=O)Nc3ccccc3F)C2)ccn1 [C6]
- MIC S. aureus (S. aureus ATCC25923 [1]): ≥ 256 µg/mL
- Residual GTPase activity [2]: 92.8%

Compound: COc1ccc(CC(=O)Nc2cccc(C(N)=O)c2)cc1 [C8]
- MIC S. aureus (S. aureus ATCC25923 [1]): ≥ 256 µg/mL
- IC50 [2]: 8.4 µM
- Residual GTPase activity [2]: 11.8%

Compound: Cc1ccc(-c2nnc(Nc3cccc(O)c3)c3ccccc23)cc1S(N)(=O)=O [C9]
- MIC S. aureus (S. aureus ATCC25923 [1]): ≥ 256 µg/mL
- Residual GTPase activity [2]: 34.3%

Compound: O=C(Oc1ccc(NC2=NS(=O)(=O)c3ccccc32)cc1)c1ccccc1 [C11.1]
- MIC (S. aureus ATCC25923 [1]): ≥ 128 µg/mL
- Activity on FtsZSa polymerization (FtsZSa [3]): mild activity
- IC50 (FtsZSa [4]): 71.7 µM

Compound: O=S1(=O)C=C(Sc2nnc(-c3ccccc3)o2)c2ccccc21 [C11.2]
- MIC (S. aureus ATCC25923 [1]): 8 µg/mL (≈ 23.4 µM)
- IC50 (FtsZSa [4]): 23.7 µM

Compound: O=S1(=O)N=C(Nc2nc3c(s2)CCCC3)c2ccccc21 [C11.3]
- MIC (S. aureus ATCC25923 [1]): ≥ 128 µg/mL

Compound: CCOc1ccc(NC(=O)CN2C(=O)c3ccccc3S2(=O)=O)cc1 [C11.4]
- MIC (S. aureus ATCC25923 [1]): ≥ 128 µg/mL
- IC50 (FtsZSa [4]): 41.9 µM

Compound: O=S1(=O)N=C(Nc2nc(-c3ccccc3)cs2)c2ccccc21 [C11.5]
- MIC S. aureus (S. aureus ATCC25923 [1]): ≥ 128 µg/mL
- MIC (S. aureus ATCC25923 [1]): ≥ 128 µg/mL
- IC50 (FtsZSa [4]): 34.6 µM

Compound: O=C(c1ccco1)N1CCN(C2=NS(=O)(=O)c3ccccc32)CC1 [C11.6]
- MIC (S. aureus ATCC25923 [1]): ≥ 128 µg/mL

Compound: CCc1sc(NC2=NS(=O)(=O)c3ccccc32)nc1-c1ccccc1 [C11.7]
- MIC S. aureus (S. aureus ATCC25923 [1]): 8 µg/mL (≈ 21.7 µM)
- MIC (S. aureus ATCC25923 [1]): 8 µg/mL (≈ 21.7 µM)
- IC50 (FtsZSa [4]): 29.4 µM

Compound: Cc1occc1-c1nnc(SC2=CS(=O)(=O)c3ccccc32)o1 [C11.8]
- MIC (S. aureus ATCC25923 [1]): 128 µg/mL (≈ 370 µM)
- IC50 (FtsZSa [4]): 41.6 µM

Compound: O=S1(=O)N=C(Nc2nnc(SCc3ccccc3Cl)s2)c2ccccc21 [C11.9]
- MIC (S. aureus ATCC25923 [1]): 128 µg/mL (≈ 303 µM)

Compound: O=C(CSc1nnc(NC2=NS(=O)(=O)c3ccccc32)s1)Nc1ccc(Cl)cc1 [C11.10]
- MIC (S. aureus ATCC25923 [1]): ≥ 128 µg/mL

Compound: Cc1ccc(-c2nnc(SC3=CS(=O)(=O)c4ccccc43)o2)cc1 [C11.11]
- MIC (S. aureus ATCC25923 [1]): ≥ 128 µg/mL

Compound: O=C(CN1C(=O)c2ccccc2S1(=O)=O)Nc1nc(-c2ccccc2)cs1 [C11.12]
- MIC (S. aureus ATCC25923 [1]): ≥ 128 µg/mL

Compound: CC(C)(O/N=C(\C(=O)N[C@@H]1C(=O)N2C(C(=O)[O-])=C(C[n+]3ccccc3)CS[C@H]12)c1csc(N)n1)C(=O)O [Ceftazidime, reference compound]
- MIC (S. aureus ATCC25923 [1]): 16 µg/mL (≈ 29.3 µM)
- Effect of the combination with C11 (S. aureus ATCC25923 [5]): synergistic effect

Compound: CC[C@H]1OC(=O)[C@H](C)[C@@H](O[C@H]2C[C@@](C)(OC)[C@@H](O)[C@H](C)O2)[C@H](C)[C@@H](O[C@@H]2O[C@H](C)C[C@H](N(C)C)[C@H]2O)[C@](C)(O)C[C@@H](C)C(=O)[C@H](C)[C@@H](O)[C@]1(C)O [Erythromycin, reference compound]
- MIC (S. aureus ATCC25923 [1]): 0.5 µg/mL (≈ 0.681 µM)
- Effect of the combination with C11 (S. aureus ATCC25923 [5]): additive effect

Compound: CC(=O)NC[C@H]1CN(c2ccc(N3CCOCC3)c(F)c2)C(=O)O1 [Linezolid, reference compound]
- MIC (S. aureus ATCC25923 [1]): 2 µg/mL (≈ 5.93 µM)
- Effect of the combination with C11 (S. aureus ATCC25923 [5]): additive effect

Compound: C[C@@H](O)[C@H]1C(=O)N2C(C(=O)O)=C(S[C@@H]3CN[C@H](C(=O)N(C)C)C3)[C@H](C)[C@H]12 [Meropenem, reference compound]
- MIC (S. aureus ATCC25923 [1]): 0.25 µg/mL (≈ 0.652 µM)
- MIC ([6]; S. aureus BG8 MRSA, single drug): 2 µg/mL (≈ 5.22 µM)
- MIC ([6]; S. aureus BG10 MRSA, single drug): 16 µg/mL (≈ 41.7 µM)
- MIC ([6]; Staphylococcus aureus, MRSA, S. aureus BG6 MRSA, read-out: MIC): 4 µg/mL (≈ 10.4 µM)
- MIC ([6]; Staphylococcus aureus, MRSA, S. aureus BG7 MRSA smv, read-out: MIC): 2 µg/mL (≈ 5.22 µM)
- MIC ([6]; Staphylococcus aureus, MRSA, S. aureus BG8 MRSA, single drug, read-out: MIC): 2 µg/mL (≈ 5.22 µM)
- MIC ([6]; Staphylococcus aureus, MRSA, S. aureus BG10 MRSA, single drug, read-out: MIC): 16 µg/mL (≈ 41.7 µM)
- MIC ([6]; Staphylococcus aureus, S. aureus BG1, read-out: MIC): 0.5 µg/mL (≈ 1.3 µM)
- MIC ([6]; Staphylococcus aureus, S. aureus BG2, read-out: MIC): 0.5 µg/mL (≈ 1.3 µM)
- MIC ([6]; Staphylococcus aureus, S. aureus BG3, read-out: MIC): 0.25 µg/mL (≈ 0.652 µM)
- MIC ([6]; Staphylococcus aureus, S. aureus BG4, read-out: MIC): 0.25 µg/mL (≈ 0.652 µM)
- MIC ([6]; Staphylococcus aureus, S. aureus BG5, read-out: MIC): 0.25 µg/mL (≈ 0.652 µM)
- Effect of the combination with C11 (S. aureus ATCC25923 [5]): synergistic effect

Compound: CC(=O)O[C@H]1C(=O)[C@@]2(C)[C@H]([C@H](OC(=O)c3ccccc3)[C@]3(O)C[C@H](OC(=O)[C@H](O)[C@@H](NC(=O)c4ccccc4)c4ccccc4)C(C)=C1C3(C)C)[C@]1(OC(C)=O)CO[C@@H]1C[C@@H]2O [Paclitaxel, paclitaxel, reference compound]
- Vmax of tubulin polymerization (mammalian tubulin): 21.45 mOD/min

Compound: CO[C@H]1/C=C/O[C@@]2(C)Oc3c(C)c(O)c4c(O)c(c(/C=N/N5CCN(C)CC5)c(O)c4c3C2=O)NC(=O)/C(C)=C\C=C\[C@H](C)[C@H](O)[C@@H](C)[C@@H](O)[C@@H](C)[C@H](OC(C)=O)[C@@H]1C [Rifampicin, reference compound]
- MIC (S. aureus ATCC25923 [1]): 0.03 µg/mL (≈ 0.0365 µM)
- Effect of the combination with C11 (S. aureus ATCC25923 [5]): synergistic effect

Compound: NC(=O)c1c(F)ccc(OCc2nc3cc(C(F)(F)F)cnc3s2)c1F [TX707]
- MIC S. aureus (S. aureus; ref 19−22): 0.25 to 2 µg/mL

Compound: CN1CCC(C(=O)NC(=O)c2c(F)ccc(OCc3nc4cc(C(F)(F)F)cnc4s3)c2F)CC1 [TX709]
- MIC S. aureus (S. aureus; ref 19−22): 2 to 4 µg/mL

Compound: CN(C)[C@@H]1C(O)=C(C(N)=O)C(=O)[C@@]2(O)C(O)=C3C(=O)c4c(O)cccc4[C@@](C)(O)[C@H]3C[C@@H]12 [Tetracycline, reference compound]
- MIC (S. aureus ATCC25923 [1]): 0.5 µg/mL (≈ 1.13 µM)
- Effect of the combination with C11 (S. aureus ATCC25923 [5]): additive effect

Compound: O=C(Oc1cc(OC(=O)c2ccc(O)c(Cl)c2)c2ccccc2c1)c1ccc(O)c(Cl)c1 [UCM53]
- MIC S. aureus (S. aureus; ref 15−17): 2 to 8 µg/mL

Compound: Benzimidazole
- MIC Mtb H3tRv [7]: 0.39 µg/mL
